Patent US12325685B2, “RXR agonist salt form, polymorphs thereof, and uses thereof” (Io Therapeutics, Inc., priority 2022, dated 2025)
Converted amounts (≈) assume the structure as drawn.

Key:
[1] = Kinetic solubility at 37° C. in water and three biorelevant media; format: physicochemical
Method: Example 7: Kinetic Solubility. Kinetic solubility measurements were conducted on Compound 1 (a free acid) and Form A Tris salt of Compound 1 at 37° C. in water and three biorelevant media: synthetic gastric fluid; fed synthetic small intestinal fluid; and fasting synthetic small intestinal fluid.

[2] = Approximate (thermodynamic) solubility in solvents at room temperature; format: physicochemical; conditions: for solubility: organic solvent or mixture, thermodynamic from solid
[3] = Fasting Synthetic Small Intestinal Fluid, 37° C., 1 Hr
[4] = Fasting Synthetic Small Intestinal Fluid, 37° C., 4 Hrs
[5] = Fasting Synthetic Small Intestinal Fluid, 37° C., 24 Hrs
[6] = Fed Synthetic Small Intestinal Fluid, 37° C., 1 Hr
[7] = Fed Synthetic Small Intestinal Fluid, 37° C., 4 Hrs
[8] = Fed Synthetic Small Intestinal Fluid, 37° C., 24 Hrs
[9] = Synthetic Gastric Fluid, 37° C., 1 Hr
[10] = Synthetic Gastric Fluid, 37° C., 4 Hrs
[11] = Synthetic Gastric Fluid, 37° C., 24 Hrs

| Structure (SMILES) | Observed kinetic aqueous solubility S [1, 3] [µg/mL] | pH [1, 3] | Observed kinetic aqueous solubility S [1, 4] [µg/mL] | pH [1, 4] | Observed kinetic aqueous solubility S [1, 5] [µg/mL] | pH [1, 5] | Observed kinetic aqueous solubility S [1, 6] [µg/mL] | pH [1, 6] | Observed kinetic aqueous solubility S [1, 7] [µg/mL] | pH [1, 7] | pH [1, 8] | pH [1, 9] | pH [1, 10] | pH [1, 11] | Observed kinetic aqueous solubility S ([1]; Water, 37° C., 1 Hr) [µg/mL] | pH ([1]; Water, 37° C., 1 Hr) | Observed kinetic aqueous solubility S ([1]; Water, 37° C., 4 Hrs) [µg/mL] | pH ([1]; Water, 37° C., 4 Hrs) | Observed kinetic aqueous solubility S ([1]; Water, 37° C., 24 Hrs) [µg/mL] | pH ([1]; Water, 37° C., 24 Hrs) | further results |
| --- | --- | --- | --- | --- | --- | --- | --- | --- | --- | --- | --- | --- | --- | --- | --- | --- | --- | --- | --- | --- | --- |
| CC(/C=C/[C@@H]1C[C@]1(C)c1ccc2c(c1)C(C)(C)CCC2(C)C)=C\C(=O)O [Compound 1, (2E,4E)-3-methyl-5-((1 S,2S)-2-methyl-2-(5,5,8,8-tetramethyl-5,6,7,8-tetrahydronaphthalen-2-yl)cyclopropyl)penta-2,4-dienoic acid] | 50 | 6.48 | 60 | 6.88 | 40 | 7.50 | 100 | 5.09 | 100 | 5.17 | 5.21 | 1.67 | 1.78 | 1.92 | 30 | 7.78 | 30 | 7.83 | 10 | 8.33 | Observed kinetic aqueous solubility S [1, 8]: 440 µg/mL; kinetic solubility in synthetic gastric fluid (in words) ([1]; synthetic gastric fluid): poor or undetectable; solubility kinetic at 4 h ([1]; synthetic gastric fluid, 37 °C, simulated gastric fluid, thermodynamic from solid, Synthetic Gastric Fluid, 37° C., 4 Hrs, ND = No Detectable signal by HPLC, read-out: Observed kinetic aqueous solubility S): 20 µg/mL (≈ 0.0567 mM); Approximate Solubility ([2]; 2-Butanol, listed as Compound 1 (Free Acid)): 108900 to 140000 µg/mL; Approximate Solubility ([2]; Isopropanol, listed as Compound 1 (Free Acid)): 71800 to 87800 µg/mL; Approximate Solubility ([2]; Water, listed as Compound 1 (Free Acid)): 30 µg/mL; solubility ([2]; ethanol): 74900 to 91500 µg/mL (≈ 212 to 260 mM); solubility ([2]; methanol): 57400 to 73100 µg/mL (≈ 163 to 207 mM) |
| CC(/C=C/[C@@H]1C[C@]1(C)c1ccc2c(c1)C(C)(C)CCC2(C)C)=C\C(=O)O [Tris Form A] | 740 | 6.93 | 830 | 7.83 | 860 | 9.37 | 2540 | 5.91 | 410 | 6.84 | 7.33 | 1.76 | 1.96 | 2.12 | 290 | 2.68 | 170 | 3.21 | 140 | 9.3 | solubility kinetic at 24 h ([1]; fed synthetic small intestinal fluid, 37 °C, fessif, thermodynamic from solid, Fed Synthetic Small Intestinal Fluid, 37° C., 24 Hrs, read-out: Observed kinetic aqueous solubility S): 340 µg/mL (≈ 0.964 mM); kinetic aqueous solubility compared to Compound 1 ([1]; relative to free acid, see Table 1): approximately an order of magnitude, or more; kinetic solubility in synthetic gastric fluid (in words) ([1]; synthetic gastric fluid): poor or undetectable; Approximate Solubility ([2]; 2-Butanol, listed as TRIS salt Form A): >15000 µg/mL; Approximate Solubility ([2]; Ethanol, listed as TRIS salt Form A): >40000 µg/mL; Approximate Solubility ([2]; Isopropanol, listed as TRIS salt Form A): 8830 to 10600 µg/mL; Approximate Solubility ([2]; Methanol, listed as TRIS salt Form A): >88000 µg/mL; Approximate Solubility ([2]; Water, listed as TRIS salt Form A): 290 µg/mL |
